Test results: ChEMBL document CHEMBL5154703, “Improved cyclobutyl nabilone analogs as potent CB1 receptor agonists” (Eur J Med Chem, 2022)
Activity calls are given as the source filed them. The rule behind the calls is not given here.

Experiments:
[1] = target: T1, Cannabinoid receptor 1 (Rattus norvegicus, UniProt P20272); assay: Displacement of [3H]-CP-55,940 from CB1R in rat brain membranes measured by radioligand based competition binding assay; assay type: cell membranes, Membrane
[2] = target: Cannabinoid receptor 1 (Rattus norvegicus) (UniProt P20272); assay: Agonist activity at rat CB1 receptor expressed in HEK293 cells assessed as inhibition of forskolin-induced cAMP accumulation measured for 60 mins by Lance Ultra cAMP assay relative to control; assay type: functional, cell-based; settings: filed as agonist
Sequence of Cannabinoid receptor 1 (Rattus norvegicus) (P20272 whole entry): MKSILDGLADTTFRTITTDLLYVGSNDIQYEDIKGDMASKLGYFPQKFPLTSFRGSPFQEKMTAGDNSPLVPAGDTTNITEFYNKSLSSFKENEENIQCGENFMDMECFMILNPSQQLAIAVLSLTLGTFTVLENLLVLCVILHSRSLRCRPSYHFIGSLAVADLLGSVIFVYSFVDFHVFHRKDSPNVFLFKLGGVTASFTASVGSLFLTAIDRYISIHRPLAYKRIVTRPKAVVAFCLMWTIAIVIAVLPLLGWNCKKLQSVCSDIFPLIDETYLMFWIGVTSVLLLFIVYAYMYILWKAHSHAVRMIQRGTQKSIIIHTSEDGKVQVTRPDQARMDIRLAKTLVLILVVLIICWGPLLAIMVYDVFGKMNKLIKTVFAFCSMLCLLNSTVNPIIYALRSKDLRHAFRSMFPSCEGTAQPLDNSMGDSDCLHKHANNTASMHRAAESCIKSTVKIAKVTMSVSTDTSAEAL

[3] = target: T1, Cannabinoid receptor 1; assay: Agonist activity at rat CB1 receptor expressed in HEK293 cells assessed as inhibition of forskolin-induced cAMP accumulation measured for 60 mins by Lance Ultra cAMP assay; assay type: functional, cell-based
[4] = tested on: Rattus norvegicus; assay: Antinociceptive activity against female Sprague-Dawley rat model of thermal-induced nociception at 0.01 to 10 mg/kg measured after 30 to 360 mins by tail flick test; assay type: functional; settings: dose 0.01-10 mg/kg, time 30-360 min
[5] = tested on: Rattus norvegicus; assay: Hypothermic effect in female Sprague-Dawley rat model assessed as reduction in body temperature at 10 to 30 mg/kg after 30 to 360 mins; assay type: functional; settings: dose 10-30 mg/kg; time 30-360 min
[6] = target: T2, Cannabinoid receptor 1 (Homo sapiens, UniProt P21554); assay: Agonist activity at human CB1 receptor expressed in CHO-K1 cells assessed as assessed as induction of beta-arrestin 2 recruitment measured for 90 mins by PathHunter assay relative to control; assay type: functional, cell-based; settings: filed as agonist
T2 sequence (P21554 whole entry): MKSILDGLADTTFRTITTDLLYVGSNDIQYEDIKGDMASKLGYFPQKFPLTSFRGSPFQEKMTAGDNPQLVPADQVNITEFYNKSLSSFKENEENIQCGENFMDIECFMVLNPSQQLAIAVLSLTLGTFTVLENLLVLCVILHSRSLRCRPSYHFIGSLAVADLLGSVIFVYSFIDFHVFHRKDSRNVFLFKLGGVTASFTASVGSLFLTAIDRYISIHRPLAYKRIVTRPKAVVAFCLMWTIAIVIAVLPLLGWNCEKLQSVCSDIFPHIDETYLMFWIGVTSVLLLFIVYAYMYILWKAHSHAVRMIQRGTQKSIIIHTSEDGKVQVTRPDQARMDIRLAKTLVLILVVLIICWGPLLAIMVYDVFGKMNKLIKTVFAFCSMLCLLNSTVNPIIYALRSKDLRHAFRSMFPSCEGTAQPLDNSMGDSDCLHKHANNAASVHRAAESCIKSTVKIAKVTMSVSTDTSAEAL

[7] = tested on: Rattus norvegicus; assay: Hypothermic effect in female Sprague-Dawley rat model assessed as reduction in body temperature at 0.01 to 10 mg/kg measured after 30 to 360 mins; assay type: functional; settings: dose 0.01-10 mg/kg; time 30-360 min
[8] = target: T2, Cannabinoid receptor 1; assay: Agonist activity at N-terminal 3HA-tagged human CB1 receptor expressed in CHO cells assessed as inhibition of forskolin-induced cAMP accumulation measured for 30 mins by FRET assay relative to control; assay type: functional, cell-based; settings: filed as agonist
[9] = tested on: Rattus norvegicus; assay: Hypothermic effect in female Sprague-Dawley rat model assessed as reduction in body temperature at 0.01 to 10 mg/kg measured as ED50 after 30 to 360 mins; assay type: functional; settings: dose 0.01-10 mg/kg, time 30-360 min
[10] = tested on: Rattus norvegicus; assay: Antinociceptive activity against female Sprague-Dawley rat model of thermal-induced nociception at 0.3 to 1 mg/kg assessed as increase in tail flick latency measured after 30 to 360 mins by tail flick test; assay type: functional, organism-based; settings: dose 0.3-1 mg/kg, time 30-360 min
[11] = target: T2, Cannabinoid receptor 1; assay: Agonist activity at human CB1 receptor expressed in CHO-K1 cells assessed as assessed as induction of beta-arrestin 2 recruitment measured for 90 mins by PathHunter assay; assay type: functional, cell-based
[12] = tested on: Rattus norvegicus; assay: Hypothermic effect in female Sprague-Dawley rat model assessed as reduction in body temperature at 0.3 to 1 mg/kg after 90 mins; assay type: functional, organism-based; settings: dose 0.3-1 mg/kg
[13] = target: T2, Cannabinoid receptor 1; assay: Agonist activity at N-terminal 3HA-tagged human CB1 receptor expressed in CHO cells assessed as inhibition of forskolin-induced cAMP accumulation measured for 30 mins by FRET assay; assay type: functional, cell-based

T1 sequence (P20272 whole entry): as the sequence (P20272 whole entry) above

Compound	Ki [1] [nM]	other results
CC1(C)Oc2cc(C3(CCCCN=[N+]=[N-])CCC3)cc(O)c2[C@@H]2C[C@@H](O)CC[C@H]21	8.2	–
CC1(C)Oc2cc(C3(CCCCN=[N+]=[N-])CCC3)cc(O)c2[C@@H]2CC(=O)CC[C@H]21	11	–
CC1(C)Oc2cc(C3(CCCCN4CCOCC4)CCC3)cc(O)c2[C@@H]2C[C@H](O)CC[C@H]21	1.1	–
CC1(C)Oc2cc(C3(CCCCBr)CCC3)cc(O)c2[C@@H]2C[C@H](O)CC[C@H]21	1.2	–
CC1(C)Oc2cc(C3(CCCCCN=[N+]=[N-])CCC3)cc(O)c2[C@@H]2C[C@@H](O)CC[C@H]21	0.92	–
CC1(C)Oc2cc(C3(CCCCN=[N+]=[N-])CCC3)cc(O)c2[C@@H]2C[C@H](O)CC[C@H]21	0.57	–
CC1(C)Oc2cc(C3(CCCCC#N)CCC3)cc(O)c2[C@@H]2CC(=O)CC[C@H]21	3.4	–
CC1(C)Oc2cc(C3(CCCCC#N)CCC3)cc(O)c2[C@@H]2C[C@H](O)CC[C@H]21	0.55	–
CC1(C)Oc2cc(C3(CCCCCCBr)CCC3)cc(O)c2[C@@H]2C[C@H](O)CC[C@H]21	0.38	–
CC1(C)Oc2cc(C3(CCCCC#N)CCC3)cc(O)c2[C@@H]2C[C@@H](O)CC[C@H]21	1.9	–
CC1(C)Oc2cc(C3(CCCCCN=C=S)CCC3)cc(O)c2[C@@H]2CC(=O)CC[C@H]21	4.91	–
CC1(C)Oc2cc(C3(CCCCCC#N)CCC3)cc(O)c2[C@@H]2C[C@@H](O)CC[C@H]21	0.61	Emax [2]: 97%; EC50 [3]: 2 nM
CC1(C)Oc2cc(C3(CCCCCCN4CCOCC4)CCC3)cc(O)c2[C@@H]2C[C@H](O)CC[C@H]21	43.9	–
CC1(C)Oc2cc(C3(CCCCN=C=S)CCC3)cc(O)c2[C@@H]2CC(=O)CC[C@H]21	8.2	–
CC1(C)Oc2cc(C3(CCCCCN=[N+]=[N-])CCC3)cc(O)c2[C@@H]2CC(=O)CC[C@H]21	0.66	–
CC1(C)Oc2cc(C3(CCCCCC#N)CCC3)cc(O)c2[C@@H]2C[C@H](O)CC[C@H]21	0.69	Emax [2]: 108%; EC50 [3]: 3.9 nM
CC1(C)Oc2cc(C3(CCCCCCBr)CCC3)cc(O)c2[C@@H]2CC(=O)CC[C@H]21	0.46	–
CC1(C)Oc2cc(C3(CCCBr)CCC3)cc(O)c2[C@@H]2CC(=O)CC[C@H]21	45.7	–
CC1(C)Oc2cc(C3(CCCBr)CCC3)cc(O)c2[C@@H]2C[C@H](O)CC[C@H]21	8.75	–
CCCCCc1cc(O)c2c(c1)OC(C)(C)[C@@H]1CCC(C)=C[C@@H]21 [DRONABINOL]	–	ED50 [4]: 1.3 mg/kg; T [5]: 2.8 °C
CC1(C)Oc2cc(C3(CCCCN4CCOCC4)CCC3)cc(O)c2[C@@H]2CC(=O)CC[C@H]21	4	–
CC1(C)Oc2cc(C3(CCCCCC#N)CCC3)cc(O)c2[C@@H]2CC(=O)CC[C@H]21	0.55	Emax [6]: 93%; T [7]: 6 °C; Emax [8]: 94%; ED50 [4]: 0.14 mg/kg; ED50 [9]: 0.16 mg/kg; Activity [10]: Active; EC50 [11]: 7.5 nM; Emax [2]: 126%; Activity [12]: Active; EC50 [3]: 8.6 nM; EC50 [13]: 1.4 nM
CCCCCCC(C)(C)c1cc(O)c2c(c1)OC(C)(C)C1CCC(=O)CC21 (stereo not given) [NABILONE]	–	ED50 [9]: 0.38 mg/kg
CC1(C)Oc2cc(C3(CCCC#N)CCC3)cc(O)c2[C@@H]2C[C@H](O)CC[C@H]21	4.6	–
CC1(C)Oc2cc(C3(CCCCCCBr)CCC3)cc(O)c2[C@@H]2C[C@@H](O)CC[C@H]21	1	–
CC1(C)Oc2cc(C3(CCCCCN4CCOCC4)CCC3)cc(O)c2[C@@H]2CC(=O)CC[C@H]21	1.9	–
CC1(C)Oc2cc(C3(CCCCBr)CCC3)cc(O)c2[C@@H]2CC(=O)CC[C@H]21	18	–
CC1(C)Oc2cc(C3(CCCCN=C=S)CCC3)cc(O)c2[C@@H]2C[C@H](O)CC[C@H]21	1.45	–
CC1(C)Oc2cc(C3(CCCCBr)CCC3)cc(O)c2[C@@H]2C[C@@H](O)CC[C@H]21	1.11	–
